Measurements reported in patent publication US20260151517A1, “SOMATOSTATIN RECEPTOR-TARGETING RADIOPHARMACEUTICALS AND USES THEREOF” (Nuclidium AG, priority 2024, published 2026).
Where a SMILES comes first, the peptide text is derived from it. Bridges are numbered along the chain shown (N, C = ends). [ ]: non-standard residue; d: D form. The star is where a group is joined. X2 = O=C(O)CN1CCN(CC(=O)O)CCN([C@H](CCC(=O)*)C(=O)O)CC1; dPhe(4-NHCONH2) = NC(=O)Nc1ccc(C[C@@H](N)C(=O)O)cc1; Phe(4-Cl) = N[C@@H](Cc1ccc(Cl)cc1)C(=O)O

Experiments:
[1] = Specificity (blocking) study with excess DOTA-LM3; details: athymic nude Foxn1^nu, mouse, total radioactivity
Procedure: (§4) Unless otherwise specified, the in vivo studies were performed on athymic nude Foxn1^nu 4-6 weeks-old mice. Animals were injected in the shoulder with HEK-SST2 cells (10^7 cells/200 μL) suspended in PBS. The in vivo experiments were performed when tumors reached a volume between 100-500 mm. At the intervention, all mice were between 7 and 11 weeks old.
(§5) The specificity study was performed parallel to pharmacokinetics studies. For this reason, NODAGA-LM3 was radiolabeled with ^64Cu.
(§6) The specificity of [^64Cu]Cu-NODAGA-LM3 for SSTR2-expressing tissues was evaluated in HEK-SST2 xenograft mice through a blocking study. The mice were administered with 0.15 MBq of [^64Cu]Cu-NODAGA-LM3 co-injected with a 2000-fold excess of DOTA-LM3 as a blocking agent. The mice were sacrificed 4 hours post-injection, and the organs were collected. weighed, and counted in a gamma counter.

[2] = test system: HEK-SST2 xenograft mice; assay: Specificity (blocking) study with excess DOTA-LM3; details: inferred from low, stable liver accumulation
Procedure: as §4, §5, §6

[3] = PET/CT imaging after [^61Cu]CuCl2 injection; format: in vivo
[4] = molecular target: T1, SSTR1 (Homo sapiens, UniProt P30872); assay: Binding affinity (IC50) to SSTR subtypes, displacement of [Leu,D-Trp,^125I-Tyr]-somatostatin-28; details: membrane pellet sections of SSTR1-expressing cells
T1 construct: expressed in transfected cells
T1 sequence (P30872 whole entry): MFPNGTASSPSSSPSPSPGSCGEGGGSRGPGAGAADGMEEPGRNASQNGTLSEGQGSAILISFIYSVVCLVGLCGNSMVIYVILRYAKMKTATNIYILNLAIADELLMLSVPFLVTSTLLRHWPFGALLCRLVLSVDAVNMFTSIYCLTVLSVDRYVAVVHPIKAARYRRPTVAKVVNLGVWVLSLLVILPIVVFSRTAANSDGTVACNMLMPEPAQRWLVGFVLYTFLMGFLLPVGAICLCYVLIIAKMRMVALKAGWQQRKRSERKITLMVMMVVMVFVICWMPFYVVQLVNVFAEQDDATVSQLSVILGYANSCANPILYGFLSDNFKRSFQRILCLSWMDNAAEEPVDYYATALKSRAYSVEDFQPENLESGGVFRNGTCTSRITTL
Procedure: (§1) The binding affinity of Cu-NODAGA-LM3 was determined by measuring the IC50 by labelling the precursor with natural copper (^natCu). The IC50 value is the concentration in which 50% of the specific binding of a reference radioligand to the tested molecule is inhibited. The universal somatostatin radioligand [Leu,D-Trp,^125I-Tyr]-somatostatin-28 was used as a reference radioligand. The assay was performed on […] cryostat sections of membrane pellets prepared from SSTR1-, SSTR2-, SSTR3-, SSTR4-, and SSTR5-expressing cells incubated with increasing concentrations of ^natCu-NODAGA-LM3. IC50 values for each SSTR subtype were calculated by mathematically extracting the concentration of the tested molecule, causing 50% displacing of the specific bounded [Leu,D-Trp,^125I-Tyr]-somatostatin-28.

[5] = molecular target: T2, SSTR2 (Homo sapiens, UniProt P30874); assay: as above; details: membrane pellet sections of SSTR2-expressing cells
T2 construct: expressed in transfected cells
T2 sequence (P30874 whole entry): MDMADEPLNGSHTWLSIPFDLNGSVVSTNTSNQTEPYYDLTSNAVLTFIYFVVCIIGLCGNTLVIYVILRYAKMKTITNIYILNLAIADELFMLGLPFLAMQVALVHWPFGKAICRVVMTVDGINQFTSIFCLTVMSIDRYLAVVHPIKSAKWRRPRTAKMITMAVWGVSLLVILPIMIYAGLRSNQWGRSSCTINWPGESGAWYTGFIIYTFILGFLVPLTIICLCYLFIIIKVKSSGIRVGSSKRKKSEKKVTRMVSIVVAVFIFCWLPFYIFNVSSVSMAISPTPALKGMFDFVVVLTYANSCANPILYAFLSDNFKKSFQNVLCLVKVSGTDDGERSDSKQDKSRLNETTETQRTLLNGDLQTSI
Procedure: as §1

[6] = molecular target: T3, SSTR3 (Homo sapiens, UniProt P32745); assay: as above; details: membrane pellet sections of SSTR3-expressing cells
T3 construct: expressed in transfected cells
T3 sequence (P32745 whole entry): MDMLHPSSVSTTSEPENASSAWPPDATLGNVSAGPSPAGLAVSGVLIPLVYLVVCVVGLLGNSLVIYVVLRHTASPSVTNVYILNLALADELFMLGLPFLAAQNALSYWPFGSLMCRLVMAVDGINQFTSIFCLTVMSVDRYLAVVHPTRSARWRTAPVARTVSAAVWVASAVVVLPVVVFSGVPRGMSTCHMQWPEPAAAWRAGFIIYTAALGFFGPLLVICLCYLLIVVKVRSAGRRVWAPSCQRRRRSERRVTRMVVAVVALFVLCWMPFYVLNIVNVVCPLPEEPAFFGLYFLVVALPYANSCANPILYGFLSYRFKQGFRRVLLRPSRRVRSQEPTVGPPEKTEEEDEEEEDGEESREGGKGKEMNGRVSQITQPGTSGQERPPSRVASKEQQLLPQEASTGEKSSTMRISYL
Procedure: as §1

[7] = molecular target: T4, SSTR4 (Homo sapiens, UniProt P31391); assay: as above; details: membrane pellet sections of SSTR4-expressing cells
T4 construct: expressed in transfected cells
T4 sequence (P31391 whole entry): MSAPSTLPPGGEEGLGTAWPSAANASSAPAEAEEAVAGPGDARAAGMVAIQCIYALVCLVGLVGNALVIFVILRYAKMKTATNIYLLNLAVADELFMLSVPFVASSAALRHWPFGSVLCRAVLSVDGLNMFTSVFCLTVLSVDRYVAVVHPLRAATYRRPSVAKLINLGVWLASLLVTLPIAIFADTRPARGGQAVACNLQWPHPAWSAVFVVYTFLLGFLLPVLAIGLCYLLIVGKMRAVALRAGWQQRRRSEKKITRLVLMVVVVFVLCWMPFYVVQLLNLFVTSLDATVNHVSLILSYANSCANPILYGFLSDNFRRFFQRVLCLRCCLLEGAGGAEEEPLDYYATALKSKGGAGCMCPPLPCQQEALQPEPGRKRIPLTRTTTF
Procedure: as §1

[8] = molecular target: T5, SSTR5 (Homo sapiens, UniProt P35346); assay: as above; details: membrane pellet sections of SSTR5-expressing cells
T5 construct: expressed in transfected cells
T5 sequence (P35346 whole entry): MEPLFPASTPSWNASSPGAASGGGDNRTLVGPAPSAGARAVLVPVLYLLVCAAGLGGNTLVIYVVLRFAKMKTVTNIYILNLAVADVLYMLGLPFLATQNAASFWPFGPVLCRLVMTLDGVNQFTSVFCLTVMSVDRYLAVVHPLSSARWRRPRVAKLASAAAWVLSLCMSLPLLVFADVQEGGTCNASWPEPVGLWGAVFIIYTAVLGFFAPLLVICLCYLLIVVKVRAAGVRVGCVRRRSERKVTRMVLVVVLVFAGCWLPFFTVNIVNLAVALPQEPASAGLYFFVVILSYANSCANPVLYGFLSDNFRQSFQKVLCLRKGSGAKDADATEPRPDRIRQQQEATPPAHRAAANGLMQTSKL
Procedure: as §1

[9] = Extended single-dose toxicity study (GLP, microdose approach); format: in vivo, mice; details: both sexes, C57BL/6NCrl, mouse, in vivo, iv, 5 mg/kg; single i.v. dose, 14 days observation, mice; read-out: no adverse effect level (NOAEL)
Procedure: (§2) The precursor-induced toxicity was evaluated using the non-radiolabeled precursor in line with the IAEA and EMA guidelines. The non-clinical safety study was performed using the microdose approach I described in the ICH guideline M3 (R2). The study was designed as an extended single-dose toxicity study in one rodent species and performed under GLP conditions. NODAGA-LM3 toxicity was evaluated after intravenous administration on day 1 of the study, followed by an observation period of 14 days. 60 (30 males and 30 females) C57BL/6NCrl mice were divided into one dose group and one control group. The test item was administered once by i.v, administration into the tail vein.
(§3) In each of the two groups, 20 male and 20 female main animals were euthanized the day after dosing, whereas 10 male and 10 female recovery animals were kept for an observation period of 14 days after dosing to detect possible delayed occurrence or persistence of, or recovery from toxic effects. Three extra mice per sex were included as replacement animals. The dose group animals were injected with a 5 mg/kg vector in a 5 mL/kg dose volume. The control group underwent injection of the vehicle alone (5 mL/kg). The animals were examined twice daily for toxicity and morbidity/mortality signs. All animals were sacrificed for necropsy. Blood was taken before necropsy for analysis of hematologic and clinical biochemistry parameters. Organs were collected, weighted, and preserved in neutral buffered formaldehyde (4%) for histopathological examination. […] No effects on body weight gain or food consumption were noted. […] Therefore, these differences were considered to be unrelated to the test substance. […] All these changes were transitory and considered non-adverse.

[10] = test system: C57BL/6NCrl mice; assay: as above; format: in vivo
Procedure: as §2, §3

C[C@@H](O)[C@@H]1NC(=O)[C@H](CCCCN)NC(=O)[C@@H](Cc2ccc(NC(N)=O)cc2)NC(=O)[C@H](Cc2ccc(O)cc2)NC(=O)[C@H](NC(=O)[C@H](Cc2ccc(Cl)cc2)NC(=O)CC[C@H](C(=O)O)N2CCN(CC(=O)O)CCN(CC(=O)O)CC2)CSSC[C@@H](C(=O)N[C@H](Cc2ccc(O)cc2)C(N)=O)NC1=O [[^64Cu]Cu-NODAGA-LM3, metal not drawn] (X2-[Phe(4-Cl)][dC]Y[dPhe(4-NHCONH2)]KTC[dY]-NH2; disulfide 2-7)
tissue uptake at 4 h ([1]; bone, 0.15 MBq, Uptake Bone, 4 hours post-injection, non-blocking): 0.39 ± 0.07 %ID/g
tissue uptake at 4 h ([1]; bone, with DOTA-LM3, 2000-fold excess, co-injected as blocking agent, Uptake Bone, 4 hours blocking, co-injected 2000-fold excess of DOTA-LM3): 0.01 ± 0.01 %ID/g
tissue uptake at 4 h ([1]; pancreas, 0.15 MBq, Uptake Pancreas, 4 hours post-injection, non-blocking): 0.55 ± 0.1 %ID/g
tissue uptake at 4 h ([1]; pancreas, with DOTA-LM3, 2000-fold excess, co-injected as blocking agent, Uptake Pancreas, 4 hours blocking, co-injected 2000-fold excess of DOTA-LM3): 0.12 ± 0.03 %ID/g
tissue uptake at 4 h ([1]; stomach, 0.15 MBq, Uptake Stomach, 4 hours post-injection, non-blocking): 1.31 ± 0.55 %ID/g
tissue uptake at 4 h ([1]; stomach, with DOTA-LM3, 2000-fold excess, co-injected as blocking agent, Uptake Stomach, 4 hours blocking, co-injected 2000-fold excess of DOTA-LM3): 0.43 ± 0.14 %ID/g
tissue uptake at 4 h ([1]; tumor, 0.15 MBq, Uptake Tumor, 4 hours post-injection, non-blocking): 37.9 ± 3.43 %ID/g
tissue uptake at 4 h ([1]; tumor, with DOTA-LM3, 2000-fold excess, co-injected as blocking agent, Uptake Tumor, 4 hours blocking, co-injected 2000-fold excess of DOTA-LM3): 0.52 ± 0.18 %ID/g
in vivo stability [2]: generally stable in vivo, with limited transchelation phenomena

[Cl][61Cu][Cl] [[^61Cu]CuCl2]
excretion route of free isotopes [3]: excreted mainly through the liver

C[C@@H](O)[C@@H]1NC(=O)[C@H](CCCCN)NC(=O)[C@@H](Cc2ccc(NC(N)=O)cc2)NC(=O)[C@H](Cc2ccc(O)cc2)NC(=O)[C@H](NC(=O)[C@H](Cc2ccc(Cl)cc2)NC(=O)CC[C@H](C(=O)O)N2CCN(CC(=O)O)CCN(CC(=O)O)CC2)CSSC[C@@H](C(=O)N[C@H](Cc2ccc(O)cc2)C(N)=O)NC1=O [^natCu-NODAGA-LM3, metal not drawn] (X2-[Phe(4-Cl)][dC]Y[dPhe(4-NHCONH2)]KTC[dY]-NH2; disulfide 2-7)
IC50 [4]: ≥ 1000 nM
IC50 [5]: 6.7 ± 1.5 nM
IC50 [6]: ≥ 1000 nM
IC50 [7]: ≥ 1000 nM
IC50 [8]: ≥ 1000 nM

C[C@@H](O)[C@@H]1NC(=O)[C@H](CCCCN)NC(=O)[C@@H](Cc2ccc(NC(N)=O)cc2)NC(=O)[C@H](Cc2ccc(O)cc2)NC(=O)[C@H](NC(=O)[C@H](Cc2ccc(Cl)cc2)NC(=O)CC[C@H](C(=O)O)N2CCN(CC(=O)O)CCN(CC(=O)O)CC2)CSSC[C@@H](C(=O)N[C@H](Cc2ccc(O)cc2)C(N)=O)NC1=O [NODAGA-LM3, 2,2′-(7-((R)-4-(((S)-1-(((4R,7S,10S,13R,16S,19S)-4-(((R)-1-amino-3-(4-hydroxyphenyl)-1-oxopropan-2yl)carbamoyl)-10-(4-aminobutyl)-16-(4-hydroxybenzyl)-7-((R)-1-hydroxyethyl)-6,9,12,15,18-pentaoxo-13-(4-ureidobenzyl)-1,2-dithia-5,8,11,14,17-pentaazacycloicosan-19-yl)amino)-3-(4-chlorophenyl)-1-oxopropan-2-yl)amino)-1-carboxy-4-oxobutyl)-1,4,7-triazonane-1,4-diyl)diacetic acid] (X2-[Phe(4-Cl)][dC]Y[dPhe(4-NHCONH2)]KTC[dY]-NH2; disulfide 2-7)
NOAEL at 14 days [9]: 5 mg/kg
delayed toxicity ([10]; 5 mg/kg i.v., 14 days observation): no indication of delayed toxicity
adverse systemic or local effects ([10]; 5 mg/kg i.v., mice): did not cause any adverse systemic or local effects
body weight gain or food consumption ([10]; 5 mg/kg i.v., mice): No effects
clinical tolerability ([10]; 5 mg/kg i.v., mice): clinically well-tolerated
mortality ([10]; 5 mg/kg i.v., mice): no treatment-related mortality
macroscopic or microscopic findings ([10]; 5 mg/kg i.v., necropsy and histopathology): No macroscopic or microscopic findings that could be attributed to treatment
hematology, white cell count ([10]; 5 mg/kg i.v., transitory, considered non-adverse): increased white cell count in male mice
safety ratio vs intended maximum patient dose 0.8 μg/kg ([10]; considering the dose conversion factor): higher than 1,000 times
